In ChEMBL document CHEMBL2086273, “Significant activity of ecdysteroids on the resistance to doxorubicin in mammalian cancer cells expressing the human ABCB1 transporter” (J Med Chem, 2012):

Key:
[1] = molecular target: T1, ATP-dependent translocase ABCB1 (Homo sapiens, UniProt P08183); experiment: Inhibition of human ABCB1 pump expressed in mouse L5178 cells assessed as fluorescence activity ratio at 20 uM for 10 mins by flow cytometry relative to control; type: cell-based; details: l5178, 10 min
T1 sequence (P08183 whole entry): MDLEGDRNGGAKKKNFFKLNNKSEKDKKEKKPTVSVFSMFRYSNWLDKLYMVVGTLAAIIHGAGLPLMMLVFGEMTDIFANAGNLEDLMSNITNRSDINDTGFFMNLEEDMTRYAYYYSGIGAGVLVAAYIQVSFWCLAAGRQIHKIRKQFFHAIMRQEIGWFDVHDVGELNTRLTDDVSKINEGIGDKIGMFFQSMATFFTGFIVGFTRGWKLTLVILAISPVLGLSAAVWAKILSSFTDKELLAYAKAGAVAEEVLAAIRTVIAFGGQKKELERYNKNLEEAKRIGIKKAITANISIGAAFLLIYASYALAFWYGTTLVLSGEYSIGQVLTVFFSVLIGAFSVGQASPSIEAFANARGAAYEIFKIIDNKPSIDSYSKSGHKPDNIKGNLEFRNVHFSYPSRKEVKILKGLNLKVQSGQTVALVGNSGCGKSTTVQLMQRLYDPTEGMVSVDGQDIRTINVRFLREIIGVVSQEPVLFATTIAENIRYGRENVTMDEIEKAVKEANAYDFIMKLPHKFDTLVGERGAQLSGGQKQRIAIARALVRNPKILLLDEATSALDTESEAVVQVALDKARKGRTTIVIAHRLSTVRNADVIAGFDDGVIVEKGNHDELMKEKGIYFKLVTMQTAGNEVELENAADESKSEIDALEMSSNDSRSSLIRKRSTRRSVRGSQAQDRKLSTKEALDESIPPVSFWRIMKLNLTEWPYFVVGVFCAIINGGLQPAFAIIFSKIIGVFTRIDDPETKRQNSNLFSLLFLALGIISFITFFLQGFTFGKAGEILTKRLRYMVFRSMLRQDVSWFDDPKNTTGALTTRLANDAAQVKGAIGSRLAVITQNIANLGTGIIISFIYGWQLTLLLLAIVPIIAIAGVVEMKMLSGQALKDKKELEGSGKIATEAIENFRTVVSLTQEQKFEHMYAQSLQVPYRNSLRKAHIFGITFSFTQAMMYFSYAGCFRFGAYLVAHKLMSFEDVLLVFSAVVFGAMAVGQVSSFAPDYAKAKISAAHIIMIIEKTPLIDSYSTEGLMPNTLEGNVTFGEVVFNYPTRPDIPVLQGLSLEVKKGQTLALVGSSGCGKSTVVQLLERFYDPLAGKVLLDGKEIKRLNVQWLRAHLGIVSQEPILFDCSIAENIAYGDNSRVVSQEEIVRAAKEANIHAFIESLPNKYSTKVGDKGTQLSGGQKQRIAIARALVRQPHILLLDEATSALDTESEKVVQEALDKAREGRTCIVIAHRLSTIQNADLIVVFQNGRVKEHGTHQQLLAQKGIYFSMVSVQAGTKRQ

[2] = Half life of the compound in hydrochloric acid solution at pH 1.48 at 1 mg/ml; type: physicochemical
Mus musculus [3] = experiment: Acute toxicity in CFLP mouse at 250 mg/kg, ip administered as single dose; type: organism-based; set-up: dose 250 mg/kg, route intraperitoneal; details: in vivo
Mus musculus [4] = experiment: Acute toxicity in CFLP mouse at 250 mg/kg, ip co-administered with […] doxorubicin after 48 hrs; type: organism-based; set-up: dose 250 mg/kg, route intraperitoneal; details: in vivo
[5] = molecular target: T1, ATP-dependent translocase ABCB1; experiment: Inhibition of human ABCB1 expressed in mouse L5178 cells assessed as 50% inhibition of cell proliferation at compound-doxorubicin ratio of 20.4:1 after 48 hrs by MTT assay; type: cell-based; details: l5178, 48 h
[6] = molecular target: T1, ATP-dependent translocase ABCB1; experiment: Inhibition of human ABCB1 expressed in mouse L5178 cells assessed as 75% inhibition of cell proliferation at compound-doxorubicin ratio of 20.4:1 after 48 hrs by MTT assay; type: cell-based; details: l5178, 48 h
[7] = molecular target: T1, ATP-dependent translocase ABCB1; experiment: Inhibition of human ABCB1 expressed in mouse L5178 cells assessed as 95% inhibition of cell proliferation at compound-doxorubicin ratio of 20.4:1 after 48 hrs by MTT assay; type: cell-based; details: l5178, 48 h
[8] = Drug degradation of the compound in hydrochloric acid solution at pH 1.48 assessed as 20E 20,22-acetonide formation at 1 mg/ml; type: physicochemical; details: buffer
[9] = molecular target: T1, ATP-dependent translocase ABCB1; experiment: Inhibition of human ABCB1 expressed in mouse L5178 cells assessed as 50% inhibition of cell proliferation at compound-doxorubicin ratio of 40.8:1 after 48 hrs by MTT assay; type: cell-based; details: l5178, 48 h
[10] = molecular target: T1, ATP-dependent translocase ABCB1; experiment: Inhibition of human ABCB1 expressed in mouse L5178 cells assessed as 75% inhibition of cell proliferation at compound-doxorubicin ratio of 40.8:1 after 48 hrs by MTT assay; type: cell-based; details: l5178, 48 h
[11] = molecular target: T1, ATP-dependent translocase ABCB1; experiment: Inhibition of human ABCB1 expressed in mouse L5178 cells assessed as 95% inhibition of cell proliferation at compound-doxorubicin ratio of 40.8:1 after 48 hrs by MTT assay; type: cell-based; details: l5178, 48 h
[12] = Antiproliferative activity against multidrug-resistant mouse L5178 cells after 72 hrs by MTT assay; type: functional, cell-based; details: L5178, 72 h
[13] = molecular target: T1, ATP-dependent translocase ABCB1; experiment: Inhibition of human ABCB1 expressed in mouse L5178 cells assessed as 50% inhibition of cell proliferation at compound-doxorubicin ratio of 81.5:1 after 48 hrs by MTT assay; type: cell-based; details: l5178, 48 h
[14] = molecular target: T1, ATP-dependent translocase ABCB1; experiment: Inhibition of human ABCB1 expressed in mouse L5178 cells assessed as 75% inhibition of cell proliferation at compound-doxorubicin ratio of 81.5:1 after 48 hrs by MTT assay; type: cell-based; details: l5178, 48 h
[15] = molecular target: T1, ATP-dependent translocase ABCB1; experiment: Inhibition of human ABCB1 expressed in mouse L5178 cells assessed as 95% inhibition of cell proliferation at compound-doxorubicin ratio of 81.5:1 after 48 hrs by MTT assay; type: cell-based; details: l5178, 48 h

Structure (SMILES) | Ratio [1] | fractional inhibitory concentration index (FICI) [9] | fractional inhibitory concentration index (FICI) [10] | fractional inhibitory concentration index (FICI) [11] | further results
CC(C)(O)CC[C@H]1OC(C)(C)O[C@]1(C)[C@H]1CC[C@@]2(O)C3=CC(=O)[C@@H]4C[C@H]5OC(C)(C)O[C@H]5C[C@]4(C)[C@H]3CC[C@]12C | 19.13 | – | – | – | half-life at 1 mg/ml [2]: 7.3 min; Activity (Mus musculus [3]): Non-toxic; Activity (Mus musculus [4]): Non-toxic; fractional inhibitory concentration index (FICI) [5]: 0.28; fractional inhibitory concentration index (FICI) [6]: 0.14; fractional inhibitory concentration index (FICI) [7]: 0.073; Drug degradation [8]: Active
CC(O)(CO)CC[C@H]1OC(C)(C)O[C@]1(C)[C@H]1CC[C@@]2(O)C3=CC(=O)[C@]4(O)C[C@@H](O)[C@@H](O)C[C@]4(C)[C@H]3CC[C@]12C (some centres not stated) | 13.32 | 0.42 | 0.16 | 0.062 | –
CC(O)(CO)CC[C@@H](O)[C@](C)(O)[C@H]1CC[C@@]2(O)C3=CC(=O)[C@]4(O)C[C@@H](O)[C@@H](O)C[C@]4(C)[C@H]3CC[C@]12C (some centres not stated) | 1.32 | – | – | – | IC50 [12]: 30 µM; fractional inhibitory concentration index (FICI) [13]: 2.24; fractional inhibitory concentration index (FICI) [14]: 0.47; fractional inhibitory concentration index (FICI) [15]: 0.12
CC(C)[C@@H](O)C[C@@H](O)[C@](C)(O)[C@H]1CC[C@@]2(O)C3=CC(=O)[C@@H]4C[C@@H](O)[C@@H](O)C[C@]4(C)[C@H]3CC[C@]12C [PTEROSTERONE] | 0.56 | 1.32 | 0.84 | 0.54 | –
CC(=O)O[C@H]1C[C@@]2(C)[C@@H](C[C@H]1OC(C)=O)C(=O)C=C1[C@@H]2CC[C@]2(C)[C@@H]([C@@](C)(O)[C@@H](CCC(C)(C)O)OC(C)=O)CC[C@@]12O | 1.25 | 1.26 | 0.91 | 0.7 | –
C[C@@H]1C(=O)O[C@H](C)[C@H]1C[C@@H](O)[C@](C)(O)[C@H]1CC[C@@]2(O)C3=CC(=O)[C@@H]4C[C@@H](O)[C@@H](O)C[C@]4(C)[C@H]3CC[C@]12C [CYASTERONE] | 0.75 | 1.54 | 0.85 | 0.47 | –
C=C(C)CC[C@@H](O)[C@](C)(O)[C@H]1CC[C@@]2(O)C3=CC(=O)[C@@H]4C[C@@H](O)[C@@H](O)C[C@]4(C)C3=CC[C@]12C | 1.43 | 1.75 | 0.85 | 0.43 | –
CC(=O)O[C@H]1C[C@]2(C)[C@H]3CC[C@]4(C)[C@@H]([C@@](C)(O)[C@@H](CCC(C)(C)O)OC(C)=O)CC[C@@]4(O)C3=CC(=O)[C@]2(O)C[C@H]1OC(C)=O | 47.95 | 0.35 | 0.3 | 0.26 | –
CC(C)(O)CCC[C@](C)(O)[C@H]1CC[C@@]2(O)C3=CC(=O)[C@@H]4C[C@@H](O)[C@@H](O)[C@@H](O)[C@]4(C)[C@H]3CC[C@]12C | 0.66 | 1.37 | 0.9 | 0.6 | –
CC(C)(O)CC[C@H]1OC(C)(C)O[C@]1(C)[C@H]1CC[C@@]2(O)C3=CC(=O)[C@@H]4C[C@@H](O)[C@@H](O)[C@@H](O)[C@]4(C)[C@H]3CC[C@]12C | 1.14 | 1.16 | 0.51 | 0.23 | –
C[C@]12C[C@H](O)[C@H](O)C[C@H]1C(=O)C=C1[C@@H]2CC[C@]2(C)C(=O)CC[C@@]12O [RUBROSTERONE] | 0.89 | 1.12 | 0.65 | 0.41 | –
C=C(CCCC(C)(C)O)[C@H]1CC[C@@]2(O)C3=CC(=O)[C@@H]4C[C@@H](O)[C@@H](O)C[C@]4(C)[C@H]3CC[C@]12C | 0.88 | 1.05 | 0.71 | 0.53 | –
CC[C@H](C[C@@H](O)[C@](C)(O)[C@H]1CC[C@@]2(O)C3=CC(=O)[C@@H]4C[C@@H](O)[C@@H](O)C[C@]4(C)[C@H]3CC[C@]12C)C(C)(C)O [MAKISTERONE C] | 0.66 | 0.98 | 0.42 | 0.2 | –
CC(C)(O)CC[C@@H](O)[C@](C)(O)[C@H]1CC[C@@]2(O)C3=CC(=O)[C@@H]4C[C@H](O)[C@@H](O)C[C@]4(C)[C@H]3CC[C@]12C | 0.89 | – | – | – | IC50 [12]: 30 µM; fractional inhibitory concentration index (FICI) [13]: 1.16; fractional inhibitory concentration index (FICI) [14]: 0.45; fractional inhibitory concentration index (FICI) [15]: 0.22
CCC1C[C@H]([C@](C)(O)[C@H]2CC[C@@]3(O)C4=CC(=O)[C@@H]5C[C@@H](O)[C@@H](O)C[C@]5(C)[C@H]4CC[C@]23C)OC(=O)C1C (some centres not stated) [CAPITASTERONE] | 0.63 | 1.35 | 0.74 | 0.49 | –
CC(C)(O)CC[C@@H](OC(=O)c1ccccc1)[C@](C)(O)[C@H]1CC[C@@]2(O)C3=CC(=O)[C@@H]4C[C@@H](O)[C@@H](O)C[C@]4(C)[C@H]3CC[C@]12C | 2.18 | 0.58 | 0.43 | 0.32 | –
CC(C)CC[C@@H](O)[C@](C)(O)[C@H]1CC[C@@]2(O)C3=CC(=O)[C@@H]4C[C@@H](O)[C@@H](O)C[C@]4(C)C3=CC[C@]12C [DACRYHAINANSTERONE] | 1.07 | 1.76 | 2.92 | 5.46 | –
CC(C)CC[C@H](O)[C@](C)(O)[C@H]1CC[C@@]2(O)C3=CC(=O)[C@@H]4C[C@@H](O)[C@@H](O)C[C@]4(C)[C@H]3[C@H](O)C[C@]12C [AJUGASTERONE C] | 1.13 | – | – | – | IC50 [12]: 30 µM; fractional inhibitory concentration index (FICI) [5]: 1.79; fractional inhibitory concentration index (FICI) [6]: 1.66; fractional inhibitory concentration index (FICI) [7]: 1.88
C=C(C)C(C[C@@H](O)[C@](C)(O)[C@H]1CC[C@@]2(O)C3=CC(=O)[C@]4(O)C[C@@H](O)[C@@H](O)C[C@]4(C)[C@H]3CC[C@]12C)C(C)O (some centres not stated) [AJUGASTERONE B] | 0.7 | 1.21 | 0.59 | 0.3 | –
CC(=O)O[C@H]1C[C@]2(C)[C@H]3CC[C@]4(C)[C@@H]([C@@](C)(O)[C@@H](CCC(C)(C)O)OC(C)=O)CC[C@@]4(O)C3=CC(=O)[C@]2(O)C[C@H]1O | 0.84 | 1.22 | 0.86 | 0.6 | –
CC(C)(O)CC[C@@H](O)[C@](C)(O)[C@H]1CC[C@]2(O)C3=CC(=O)[C@@H]4C[C@@H](O)[C@@H](O)C[C@]4(C)[C@H]3CC[C@]12C | 1.03 | – | – | – | IC50 [12]: 30 µM; fractional inhibitory concentration index (FICI) [13]: 1.18; fractional inhibitory concentration index (FICI) [14]: 0.91; fractional inhibitory concentration index (FICI) [15]: 0.69
